Reference: patent publication EP1038532A1, “IMMUNOMODULATOR AND PHARMACEUTICAL COMPOSITIONS WITH ANTITUMOR PROPERTIES, AND A FOOD ADDITIVE” (Kaljuzhin, Oleg Vitallievich, priority 1997, dated 1998)

What was measured:
[1] = system: lymphocytes in a mixed lymphocyte culture (MLC); assay: Proliferation of lymphocytes in a mixed lymphocyte culture (MLC); type: cell-based; conditions: mean ± S.D. of six experiments, control 11.9±0.9
From the text: Each value in the table is the mean index of proliferation stimulation of lymphocytes in MLC ± S.D. of six independent experiments.

[2] = system: mouse splenocytes; assay: LPS-induced proliferation of mouse splenocytes; type: cell-based; conditions: LPS stimulation 1 µg/ml, mean ± S.D. of three experiments, control 3.4±0.2
Experimental: Each value in the table is the index of proliferation of lymphocytes in response to stimulation of 1 µg/ml under the influence of MDP derivatives (arithmetical mean ± S.D. of three independent experiments).

[3] = system: IL-1; assay: IL-1 production by peritoneal macrophages, read out by thymocyte proliferation; type: cell-based, C57BL/6 mouse; conditions: control 1.3±0.4
From the text: (§1) Each value in the table is the mean ± S.D. of three independent experiments.

[4] = system: TNF; assay: TNF production by peritoneal macrophages, read out by lysis of L929 cells; type: cell-based, C57BL/6 mouse; conditions: control 7±6
From the text: as §1

[5] = Distribution of 14C-labelled preparations in the water/chloroform model membrane; type: physicochemical
From the text: Marked differences in distribution of 14C-labelled preparations in the phases of this model "membrane" have been found. 64% of C7H15MDP was included in the water phase, and 36% of the preparation in the organic phase. At the same time, the water phase included only 28% of its lipophilic homologue, and the organic phase 72%.

[6] = system: melanoma B16; assay: Antitumor activity in the mouse melanoma B16 model; type: in vivo, C57BL/6 mice; conditions: for Inhibition of tumor growth: day 21
Experimental: (§2) Experimental procedures. Briefly, suspension of lymphoma EL-4 or melanoma B16 cells (10^6 cells) was injected subcutaneously into the footpad of C57BL/6 mice. Then mice underwent course of C7H15MDP treatment. Solution of the preparation in phosphate buffer saline (PBS) was administered i.v. or p.o. Single dosage for p.o. administration was of 1 mg/kg in weight, and of 0.5 mg/kg in weight when administered i.v. The preparation was administered twice a week during 3 weeks, beginning immediately after implantation of tumor cells. Besides, some tumor-bearing mice were treated with the preparation encapsulated in liposomes consisting of phosphatidylcholine:phosphatudylserine mixture (7:3).
(§3) Liposomal C7H15MDP in dose of 0.25 mg/kg was administered i.v. by the same schedule that was used with unencapsulated preparation.
(§4) Control mice were treated with PBS without active compound.
(§5) Antitumor effect was estimated using the following criteria: (1) prolongation of life-span, (2) inhibition of tumor growth.

[7] = system: lymphoma EL-4; assay: Antitumor activity in the mouse lymphoma EL-4 model; type: in vivo, C57BL/6 mice; conditions: for Inhibition of tumor growth: day 21
Experimental: as §2, §3, §4, §5

[8] = system: lymphoma EL-4 or melanoma B16; assay: Further antitumor trials in tumor-bearing mice (tumor type not specified); type: in vivo, C57BL/6 mice; conditions: treatment begun 1 week before tumor implantation
Experimental: Experimental procedures. Briefly, suspension of lymphoma EL-4 or melanoma B16 cells (10^6 cells) was injected subcutaneously into the footpad of C57BL/6 mice. […] Solution of the preparation in phosphate buffer saline (PBS) was administered i.v. or p.o. Single dosage for p.o. administration was of 1 mg/kg in weight, and of 0.5 mg/kg in weight when administered i.v. […] Besides, some tumor-bearing mice were treated with the preparation encapsulated in liposomes consisting of phosphatidylcholine:phosphatudylserine mixture (7:3).
as §3
However, all methods of administration (p.o., i.v., liposomal i.v.) seem to be rational. Exact administration method is to be defined individually taking into account localization and type of tumor and other factors.

[9] = cholesterol/phosphatidylcholine model lipid membrane
[10] = system: human erythroleukemia K562 cells
[11] = i.v., 0.5 mg/kg twice a week during 3 weeks
[12] = p.o., 1 mg/kg twice a week during 3 weeks

| Compound | mean index of proliferation stimulation of lymphocytes in MLC ([1]; 5 µM) | mean index of proliferation stimulation of lymphocytes in MLC ([1]; 10 µM) | mean index of proliferation stimulation of lymphocytes in MLC ([1]; 20 µM) | index of proliferation of lymphocytes ([2]; 5 µM) | index of proliferation of lymphocytes ([2]; 10 µM) | index of proliferation of lymphocytes ([2]; 20 µM) | Proliferation of tymocytes cultured with samples of IL-1 (index of proliferation) ([3]; 5 µM) | Proliferation of tymocytes cultured with samples of IL-1 (index of proliferation) ([3]; 10 µM) | Proliferation of tymocytes cultured with samples of IL-1 (index of proliferation) ([3]; 20 µM) | Cytosis of L929 cells by samples of TNF ([4]; 5 µM) | Cytosis of L929 cells by samples of TNF ([4]; 10 µM) | Cytosis of L929 cells by samples of TNF ([4]; 20 µM) | share of preparation included in the organic phase [5] | share of preparation included in the water phase [5] | time at which the preparation appeared in the second water phase [9] | also measured |
| --- | --- | --- | --- | --- | --- | --- | --- | --- | --- | --- | --- | --- | --- | --- | --- | --- |
| CCCCCCCO[C@@H]1O[C@H](CO)[C@@H](O)[C@H](O[C@H](C)C(=O)N[C@@H](C)C(=O)N[C@H](CCC(=O)O)C(N)=O)[C@H]1NC(C)=O [C7H15MDP, β-heptylglycoside-MDP] | 14.5±0.9 | 16.4±0.6 | 15.9±1.4 | 4.4±0.3 | 4.6±0.3 | 4.4±0.3 | 3.8±0.2 | 3.9±0.2 | 4.8±0.2 | 41±2% | 57±8% | 62±5% | 36% | 64% | 24 h | Prolongation of life-span [6, 11]: 101%; Mean life-span ([6]; i.v., 0.5 mg/kg twice a week during 3 weeks, control (PBS i.v.) 36±3): 74 ± 9 days; Tumor node volume at the day 21 after tumor inoculation ([6]; i.v., 0.5 mg/kg, control (PBS i.v.) 736±51): 494±49 mm^3; Inhibition of tumor growth ([6]; i.v., 0.5 mg/kg): 33%; Prolongation of life-span [6, 12]: 70%; Mean life-span ([6]; p.o., 1 mg/kg twice a week during 3 weeks, control (PBS p.o.) 30±4): 51 ± 5 days; Tumor node volume at the day 21 after tumor inoculation ([6]; p.o., 1 mg/kg, control (PBS p.o.) 765±69): 571±65 mm^3; Inhibition of tumor growth ([6]; p.o., 1 mg/kg): 25%; Prolongation of life-span [7, 11]: 62%; Mean life-span ([7]; i.v., 0.5 mg/kg twice a week during 3 weeks, control (PBS i.v.) 39±4): 63 ± 5 days; Tumor node volume at the day 21 after tumor inoculation ([7]; i.v., 0.5 mg/kg, control (PBS i.v.) 789±64): 463±52 mm^3; Inhibition of tumor growth ([7]; i.v., 0.5 mg/kg): 41%; Prolongation of life-span [7, 12]: 19%; Mean life-span ([7]; p.o., 1 mg/kg twice a week during 3 weeks, control (PBS p.o.) 42±6): 50 ± 7 days; Tumor node volume at the day 21 after tumor inoculation ([7]; p.o., 1 mg/kg, control (PBS p.o.) 842±78): 650±73 mm^3; Inhibition of tumor growth ([7]; p.o., 1 mg/kg): 23%; tumor regression [8]: complete regression of tumor was observed in several cases; time to reach a state of equilibrium between concentrations in water phases from both sides of the model membrane ([9]; first to reach equilibrium): 72 h |
| CCCCCCCCCCCCCCCCO[C@@H]1O[C@H](CO)[C@@H](O)[C@H](O[C@H](C)C(=O)N[C@@H](C)C(=O)N[C@H](CCC(=O)O)C(N)=O)[C@H]1NC(C)=O [C16H33MDP, β-hexadecylglycoside-MDP] | 9.5±1.2 | 7.7±0.4 | 5.9±0.8 | 3.0±0.1 | 2.6±0.3 | 3.0±1.0 | 3.8±0.1 | 3.9±0.4 | 3.9±0.1 | 36±15% | 40±16% | 47±10% | 72% | 28% | 1 h | time at which concentration in the second water phase became significant [9]: 6 h; binding to the cells, more intensive than amphiphilic homologue [10]: 50%; time at which cell-associated radioactivity entered the plateau stage [10]: 2 h |
